The values below are quoted from earlier work in PMC9981747, “A covalent BTK ternary complex compatible with targeted protein degradation” (Nature Communications, 2023).

On the set-up of data set [1]: method as in PMID 31879210. The settings on record: 1 mg/kg IV; cited from earlier work.
Details of data set [2]: method as in PMID 27274052. The following applies: cited from earlier work.

Consider `Nc1ncnc2c1c(-c1ccc(Oc3ccccc3)cc1)nn2C1CCN(CCOCCOCCOc2ccc3c(c2)CN(C2CCC(=O)NC2=O)C3=O)CC1` (stereo not drawn) [SJF620], for which, in data set [1], the exposure entry was “micromolar exposures”.
As a reminder, the Cmax is the highest concentration seen after dosing. On to `Cc1ncsc1-c1ccc([C@H](C)NC(=O)[C@@H]2C[C@@H](O)CN2C(=O)[C@@H](NC(=O)COCCCOCCNC(=O)C[C@@H]2N=C(c3ccc(Cl)cc3)c3c(sc(C)c3C)-n3c(C)nnc32)C(C)(C)C)cc1` [ARV-771], for which the “concentrations in sub-chronic tumor growth inhibition study” value in data set [2] (in 4 of 8 rodents tested) is > 2000 nM. For the same compound, the highest concentration (Cmax) in data set [2] (single 10 mg/kg sc dose, read-out: plasma Cmax) is ~1700 nM.
